Results on one compound are retold here after patent US7135337B2, “Insect expression vectors” (priority 1997, dated 2006).

A value given as a limit tells only on which side of the number the result lay.

One assay relates to Ld652Y cell line. Particulars: Zeocin 10 μg/ml. As to the method: (§1) The dipteran (D. melanogaster) cell lines Kc1 and SL2, and the lepidopteran cell lines Sf9 (S. frugiperda), Ld652Y (L. dispar) and Cf1 (Choristoneura fumeferana) were tested for sensitivity to Zeocin in order to establish whether Zeocin was toxic in standard culture conditions to cell lines from these disparate insect orders. Zeocin is thought to exert its toxic effects by binding to DNA to induce double strand breaks. Such strand cleavage is thought to inhibit growth by disruption of DNA replication, which in turn interferes with subsequent cell division. Accordingly, cells already committed to division would not be expected to be affected by Zeocin until the next round of DNA replication; it would therefore be expected that cells treated with Zeocin may divide once, but will be unable to undergo further mitotic divisions since their DNA will not be intact.
(§2) In accordance with the current understanding of Zeocin's mechanism of action, the minimal inhibitory concentration of Zeocin is described herein as the amount of antibiotic required to limit the culture to one doubling. Growth curves for the determination of inhibitory concentrations of Zeocin in the Kc1, SL2 and Sf9 cell lines (FIG. 4a) were performed in rotating 1.5 ml microcentrifuge tubes containing 1 ml of TC-100 complete medium (pH=6.2) with 10% fetal bovine serum (Life Technologies, Gaithersburg, Md., U.S.A.), 0.5–1.0×10^6 cells and varying concentrations of Zeocin (obtained from Invitrogen, San Diego, Calif.) at 27° C. Samples were removed daily, stained with 0.4% trypan blue and the number of viable cells determined in quadruplicate using a hemocytometer. The minimal inhibitory Zeocin concentrations affecting Ld652Y and Cf1 cell lines were determined by seeding approximately 5,000 cells in a total volume of 200 μl TC-100 complete medium +10% fetal bovine serum+Zeocin into wells of 96 well microtitre plates.

A further assay deals with Kc1 cell line. As to the method:
as §1, §2

The next assay relates to Sf9 cell line. The settings on record: TC-100 + 10% FBS, 27° C. On the procedure:
as §1, §2

A further assay deals with Cf1 cell line. The settings on record: TC-100 + 10% FBS. As to the method:
as §1, §2

Procedure for SL2 cell line: The dipteran (D. melanogaster) cell lines Kc1 and SL2, and the lepidopteran cell lines Sf9 (S. frugiperda), Ld652Y (L. dispar) and Cf1 (Choristoneura fumeferana) were tested for sensitivity to Zeocin in order to establish whether Zeocin was toxic in standard culture conditions to cell lines from these disparate insect orders. […] Accordingly, cells already committed to division would not be expected to be affected by Zeocin until the next round of DNA replication; it would therefore be expected that cells treated with Zeocin may divide once, but will be unable to undergo further mitotic divisions since their DNA will not be intact.
In accordance with the current understanding of Zeocin's mechanism of action, the minimal inhibitory concentration of Zeocin is described herein as the amount of antibiotic required to limit the culture to one doubling. […] Samples were removed daily, stained with 0.4% trypan blue and the number of viable cells determined in quadruplicate using a hemocytometer.

As to `Cc1c(N)nc([C@H](CC(N)=O)NC[C@H](N)C(N)=O)nc1C(=O)N[C@H](C(=O)N[C@H](C)[C@@H](O)[C@H](C)C(=O)N[C@H](C(=O)NCCC1=N[C@@H](c2nc(C(=O)NCCCCN=C(N)N)cs2)CS1)[C@@H](C)O)[C@@H](O[C@@H]1O[C@@H](CO)[C@@H](O)[C@H](O)[C@@H]1O[C@H]1O[C@H](CO)[C@@H](O)[C@H](OC(N)=O)[C@@H]1O)c1cnc[nH]1` [Zeocin], the “Zeocin concentration that inhibited more than one round of cell division” value in the assay with SL2 cell line (TC-100 + 10% FBS, 27° C.) was greater than 75 mg/mL; in the assay with Kc1 cell line (TC-100 + 10% FBS, 27° C.), “greater than 50 μg/ml”. Further, the “effect on growth rate” value in the assay on SL2 cell line (Zeocin 10 μg/ml), in the assay on Ld652Y cell line and with Kc1 cell line (Zeocin 10 μg/ml) was “dramatic reductions in growth rates” throughout. Also, the “Zeocin concentration required to completely inhibit further cell division” value with Sf9 cell line and in the assay on Cf1 cell line was “at least 250 μg/ml” throughout. Besides, the figures for the “Zeocin concentration found to inhibit growth” value in the assay on Hi5 cell line and with C6/36 cell line were 800 µg/mL and 250 µg/mL, respectively.
